*: point of attachment. AMC = Cc1cc(=O)oc2cc(N*)ccc12; Boc = CC(C)(C)OC(=O)*; OBn = c1ccc(CO*)cc1
How the values were obtained:
Conditions in all cases: substrate 100 μM in TBS pH 7.5, 37° C.; never obtained with blank vector supernatant
[1] = test system: ARS-FLAG culture supernatant (recombinant ARS protein, SEQ ID NO:2 1st to 531st); test: Enzymatic cleavage of MCA-labeled synthetic peptides by ARS-FLAG culture supernatant; assay type: biochemical, human
Experimental: (§1) The expression plasmids prepared in Examples 3 to 5 were introduced into HEK293-EBNA cell (Invitrogen) using a transfection reagent (FuGENE™6 transfection reagent; Roche) according to the instruction attached thereto. After the introduction of the plasmids, the culture medium was replaced with a serum-free culture medium within 12 to 16 hours and further incubated for another 48 to 60 hours. The culture supernatant was collected and resulting each liquid culture was centrifuged (3000 rpm, 10 minutes) with a centrifuge (Type 8800; Kubota) to obtain culture supernatants. After removing the culture supernatants, the remaining cells were washed with phosphate buffer (PBS; 10 mM sodium phosphate, pH 7.5) and then recovered by scraping from the culture plate by pipetting with phosphate buffer, and centrifuged with a centrifuge (Type 8800; Kubota) at 3000 rpm for 10 minutes. The resulting precipitate was suspended in phosphate buffer, which was defined as the cell fraction. The culture supernatants obtained by the introduction of pCEP-ARSF-FLAG, pCEP-signal-FLAG-ARS-extracellular and pCEP-signal-FLAG-ARS-SerPD are referred to as ARS-FLAG culture supernatant, signal-FLAG-ARS-extracellular culture supernatant, signal-FLAG-ARS-SerPD culture supernatant and signal-FLAG-ARS-SerPDO culture supernatant, respectively.
(§2) The method for detecting enzymatic cleavage activity using a synthetic peptide labeled with MCA (4-methyl-coumaryl-7-amide) in the C terminus was according to the method reported in an academic paper (Yasuoka, S. et al., Am. J. Respir. Cell Mol Biol., Vol. 16, 300-308, 1997), unless otherwise described. […] Subsequently, the fluorescence of AMC (7-amino-4-methyl-coumarin) released from the synthetic peptide by enzymatic cleavage was measured at a wavelength of 460 nm for measurement, using an excitation wavelength of 390 nm with a fluorescent plate reader (Fluostar, SLT).

[2] = molecular target: T1, signal-FLAG-ARS-extracellular culture supernatant (SEQ ID NO:2 51st to 531st) (Homo sapiens, UniProt Q7Z410, INS90FVSSFQKTELEASCVGCSVLNYRDGNSSVLVHFQ); test: Enzymatic cleavage of MCA-labeled synthetic peptides by signal-FLAG-ARS-extracellular culture supernatant; assay type: biochemical
T1 construct: made in house; host or cells: HEK293-EBNA
T1 sequence (Q7Z410 with tags, fused parts or gaps): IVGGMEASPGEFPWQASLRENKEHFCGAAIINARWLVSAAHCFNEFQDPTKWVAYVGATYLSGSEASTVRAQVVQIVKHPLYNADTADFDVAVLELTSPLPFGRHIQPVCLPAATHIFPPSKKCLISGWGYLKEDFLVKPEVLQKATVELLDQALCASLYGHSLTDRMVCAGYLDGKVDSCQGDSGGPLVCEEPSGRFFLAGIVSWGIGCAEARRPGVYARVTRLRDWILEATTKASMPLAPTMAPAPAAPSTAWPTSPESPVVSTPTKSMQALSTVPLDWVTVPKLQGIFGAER
T1 sequence (Q7Z410 with tags, fused parts or gaps INS90FVSSFQKTELEASCVGCSVLNYRDGNSSVLVHFQ): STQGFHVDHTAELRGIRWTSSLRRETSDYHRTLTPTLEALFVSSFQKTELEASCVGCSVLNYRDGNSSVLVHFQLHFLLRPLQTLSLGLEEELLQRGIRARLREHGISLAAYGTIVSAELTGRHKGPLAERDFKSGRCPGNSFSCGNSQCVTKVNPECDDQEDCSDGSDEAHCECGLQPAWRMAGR
Experimental: as §1, §2

[3] = molecular target: T2, signal-FLAG-ARS-SerPDO culture supernatant (SEQ ID NO:2 237th to 464th) (Homo sapiens, UniProt Q7Z410); test: Enzymatic cleavage of MCA-labeled synthetic peptides by signal-FLAG-ARS-SerPDO culture supernatant; assay type: biochemical
T2 construct: made in house; host or cells: HEK293-EBNA
T2 sequence (Q7Z410 203-430): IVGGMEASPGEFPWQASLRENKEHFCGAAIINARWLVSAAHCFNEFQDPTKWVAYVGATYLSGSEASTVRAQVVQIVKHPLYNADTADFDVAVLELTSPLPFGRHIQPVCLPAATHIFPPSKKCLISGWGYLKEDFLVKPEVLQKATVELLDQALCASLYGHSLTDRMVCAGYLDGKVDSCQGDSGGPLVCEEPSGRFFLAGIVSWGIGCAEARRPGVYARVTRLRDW
Experimental: as §1, §2

Measured: cleavage activity of synthetic peptide (fluorescence of released AMC)

Boc-Phe-Ser-Arg-{AMC}
showed the cleavage activity: all assays above

Boc-Glu(OBn)-Ala-Arg-{AMC}
showed the cleavage activity: all assays above

Boc-Gln-Arg-Arg-{AMC}
showed the cleavage activity: all assays above

Reference: US20060134719A1, “Novel serine protease” (priority 2002, published 2006)
